From US5079257A, “Indoloquinone compounds” (priority 1986, dated 1992) come the findings set out here.

Values after ≈ are worked out from the molar mass of the structure shown. Like-named read-outs stand apart in the source and are kept apart here.

For one data set, the system named is Ovarian (MRI-H-207) line. The class given is in vivo, human. The text has this: The xenograft experiments have been carried by Dr. H. H. Fiebig of the University of Freiburg [Lung-NSCLC (LXGF) line, Renal line, Breast line; See: H. H. Fiebig et al., Behring Inst. Mitt., 74 343] and by Dr. E. Boven of the Free University Hospital Amsterdam [Ovarian (MRI-H-207) line; See: E. Boven et al., Cancer Res., 45, 86 (1985) and E. Boven et al., Eur. J. Clin. Oncol., 21, 1253 (1985)].
Mice: C57B1 athymic (nu/nu) female mice, 8 to 10 weeks of age were used for s.c. bilateral implantation of tumour fragments 2 mm diameter.
Treatment: E.O. 9 was dissolved in saline at a concentration of 0.5 mg/ml prior to administration. Drug doses and schedules were derived from studies in experimental murine tumour systems and from orientation studies in non-tumour-bearing nude mice. Treatment was started i.v. when tumours measured 50-150 mm^3. After randomization a group of 6-7 tumour-bearing mice was treated and a group of 5-6 tumour-bearing mice served as control.
Evaluation of efficacy: Tumours were measured twice weekly in three dimensions. Efficacy was expressed as the mean of relative tumour volume in treated animals vs. that in control animals×100 (% T/C). The optimal value was calculated within 35 days after the last injection. Toxic death (dead mice within two weeks after the last injection) were excluded from the evaluation.
MRI-H-207: An undifferentiated adenocarcinoma kindly provided by Dr. A. E. Bogden, Worcester, Mass, with a doubling time of 3-5 days.

A further data set has as its system MCF7 breast cancer cells. Put plainly: In vitro panel of human tumour lines (TNO): MCF-7. Further: key: -: no inhibition of cell growth; +: total cell-kill. Particulars: about 72 hours. The class given is cell-based. On the procedure:
(§1) Compounds E.O. 1, E.O. 2, E.O. 4, E.O. 4A, E.O. 8, E.O. 9, […], E.O. 33, and E.O. 35 were tested for their activity against five human tumour cell lines at the Radiobiological Institute TNO Rijswijk.
(§2) The new in vitro prescreen uses human tumour clones; it was set up by Dr. P. Lelieveld at TNO Rijswijk and comprises testing compounds in a bioliquid assay for their cytostatic activity against the following five human tumour lines:
(§3) After a continuous exposure to the drugs to be tested and to Adriamycin in `24 well tissue culture clusters, type 3524 (Costar)`, the remaining cells are fixed and stained. Using increasing drug concentrations the inhibiting concentration can be estimated qualitatively.
(§4) Cells: the human tumour cells are maintained in Dulbecco's medium supplemented with 10 percent foetal calf serum.
(§5) M and W cell suspensions: 10^5 cells/ml.
(§6) The cells were grafted into 16 mm wells for 48 hours (0.5 ml cell suspension per well was used).
(§7) Drugs: the compound to be tested was dissolved in appropriate concentrations in a mixture of Hepes-buffered Hanks' balanced salt solution and ethanol. The drug solutions (0.05 ml) were added to the different wells. The final ethanol concentration in each well was less than one percent.
(§8) The cells were continuously incubated with the compound under test at 37° in an atmosphere of 10 percent CO2 in humidified air for about 72 hours.
(§9) Determination of the inhibiting dose: the cells were fixed and stained with a solution of crystal violet in methanol/formaldehyde.

In a further data set the test system is L1210 cells. Put plainly: L1210 activity (bioliquid assay), cytotoxicity. In kind it is cell-based. Conditions: Mus musculus, L1210, 48 h. Summed up: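 Suspension culture in RPMI with 15% FCS and 2-mercaptoethanol (60 μmol). Continuous compound exposure for 48 hours at 37° C under 5% CO2 in humidified air. Cell numbers then counted on an electronic microcell counter.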

Data set [1] relates to A 204 cells; rhabdomyosarcoma. Briefly: In vitro panel of human tumour lines (TNO): A 204. Further: key: -: no inhibition of cell growth; +: total cell-kill. The class given is cell-based. Particulars: about 72 hours. On the procedure: as §1, §2, §3, §4
(§10) A, T and Z cell suspensions: 5·10^4 cells/ml
as §6, §7, §8, §9

Data set [2] relates to T 24 cells; bladder carcinoma. Put plainly: In vitro panel of human tumour lines (TNO): T 24. Further: key: -: no inhibition of cell growth; +: total cell-kill. The class given is cell-based. Particulars: about 72 hours. Here is the method:
as §1, §2, §3, §4, §10, §6, §7, §8, §9

For a further data set, the system named is P 388 tumour cells. Put plainly: In vivo P388 experiments (Brussels). Further details: species or system mice. Conditions: for MAX T/C: days 1 to 5. On the procedure:
These experiments were carried out at the Institute Jules Bordet, Brussels, on CDF, female mice. The mice were inoculated intraperitoneally (IP) with 1×10^6 P 388 tumour cells. After 24 hours, the compounds were administrated as suspensions in "Tween-80" or using saline as vehicle. Six mice were used at each dose of the compound, given on days 1 to 5 and eighteen control mice were injected with saline.

Data set [3] deals with R-1 cells (Rhabdomyosarcoma Cells). Briefly: R-1 activity (bioliquid assay), cytotoxicity. In kind it is cell-based. Particulars: Rhabdomyosarcoma cell. Summed up: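 Rhabdomyosarcoma R-1 cells (~10^6 per dish) in Dulbecco's medium with 10% FCS were exposed to drug solution, which was then replaced by fresh medium. Cells were trypsinized after 48 hours and counted electronically.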

The test system of the next data set is WiDr cells; colon tumour. Briefly: In vitro panel of human tumour lines (TNO): WiDr. Further: key: -: no inhibition of cell growth; +: total cell-kill. Conditions: about 72 hours. In kind it is cell-based. On the procedure:
as §1, §2, §3, §4, §5, §6, §7, §8, §9

In the next data set the test system is IgR37 cells melanoma. Briefly: In vitro panel of human tumour lines (TNO): IgR-37. Further: key: -: no inhibition of cell growth; +: total cell-kill. The class given is cell-based. Conditions: about 72 hours. Here is the method: as §1, §2, §3, §4, §10, §6, §7, §8, §9
The nature of data set [4]: Half-wave reduction potentials / polarography (University of Utrecht). In kind it is physicochemical. Conditions: pH = 8 vs Ag/AgCl. The source says:
*The halve wave reduction potentials (E1/2) have been determined at the
Pharmaceutical Laboratory of University of Utrecht. Only the first
(quinone) reduction potential has been given.
Additional evidence for the occurrence of a bioreductive activation mechanism during the cytotoxic action of indoloquinones (II) was obtained via electrochemical studies, which have been carried out at the Pharmaceutical Laboratory of the University of Utrecht. […]

Setting [5] is: 60 mg/kg, days of treatment 0,6,13,20.
Setting [6] is: read-out: ID-50 L1210, Table VIII.
The mark [7] stands for this setting: read-out: ID-50 R-1, Table I, bioliquid assay.
Setting [8] is: read-out: ID-50 R-1, Table VIII.
The mark [9] stands for this setting: 150 mg/kg, days of treatment 0,9,16.

With `O=c1[nH]cc(F)c(=O)[nH]1` [5FU], in the data set with Ovarian (MRI-H-207) line (setting [5]), the T/C % was 63% and the toxic deaths is reported as 0/7.
With `O=P1(N(CCCl)CCCl)NCCCO1` (stereo not drawn) [CTX], the toxic deaths with Ovarian (MRI-H-207) line is 2/7.
As to `N.N.O=C([O-])C1(C(=O)[O-])CCC1.[Pt+2]` [Carboplatin], in the data set on Ovarian (MRI-H-207) line (60 mg/kg, days of treatment 0.6), the toxic deaths is 0/6.
Turning to `COc1cccc2c1C(=O)c1c(O)c3c(c(O)c1C2=O)C[C@@](O)(C(=O)CO)C[C@@H]3O[C@H]1C[C@H](N)[C@H](O)[C@H](C)O1` [DXR], the toxic deaths in the data set on Ovarian (MRI-H-207) line (10 mg/kg, days of treatment 0.7) is listed as 1/6.
For the molecule `CC(=O)OCc1c2c(n(C)c1/C=C/CO)C(=O)C=C(N1CC1)C2=O` [E.O. 4A, 3-Acetoxymethyl-5-aziridino-1-methyl-2-[1H-indole-4,7-dione]prop-β-en-α-ol], the “in vitro activity score, MCF-7” value with MCF7 breast cancer cells (0.01 μg/ml) is on record as “-”; with MCF7 breast cancer cells (0.1 μg/ml), “-”; in the data set with MCF7 breast cancer cells (10 μg/ml), “+”. For the same molecule, the IC50 in the data set on L1210 cells (setting [6]) is 0.15 µg/mL (≈ 0.454 µM); in [3] (setting [7]), 0.02 µg/mL (≈ 0.0605 µM); in [3] (setting [8]), 0.022 µg/mL (≈ 0.0666 µM). Besides, the “in vitro activity score, A 204” value in [1] (0.01 μg/ml) was “-”; in data set [1] (0.1 μg/ml) it was “-”; in data set [1] (1.0 μg/ml), “+”; in data set [1] (10 μg/ml) it was “+”. The “in vitro activity score, T 24” value in data set [2] (0.01 μg/ml) is “-”; in data set [2] (0.1 μg/ml), “-”; in data set [2] (1.0 μg/ml), “+”; in data set [2] (10 μg/ml), “+”. In addition, the “MAX T/C” value with P 388 tumour cells (100 mg/kg) was 120%. The “in vitro activity score, WiDr” value is “-” in the data set on WiDr cells; colon tumour (0.01 μg/ml), “-” in the data set on WiDr cells; colon tumour (0.1 μg/ml), “+” in the data set on WiDr cells; colon tumour (1.0 μg/ml) and “+” with WiDr cells; colon tumour (10 μg/ml). Besides, the “in vitro activity score, IgR-37” value with IgR37 cells melanoma (0.01 μg/ml) is listed as “-”; in the data set on IgR37 cells melanoma (1.0 μg/ml), “+”; in the data set on IgR37 cells melanoma (10 μg/ml), “+”.
As to `CC1CN1C1=CC(=O)c2c(c(CO)c(/C=C/CO)n2C)C1=O` (stereo not drawn) [E.O. 8, 3-Hydroxymethyl-1-methyl-5-propyleneamino-2-[1H-indole-4,7-dione]prop-β-en-α-ol], the “in vitro activity score, MCF-7” value in the data set with MCF7 breast cancer cells (0.01 μg/ml), in the data set with MCF7 breast cancer cells (0.1 μg/ml), in the data set on MCF7 breast cancer cells (1.0 μg/ml) and with MCF7 breast cancer cells (10 μg/ml) was “-” each time. Further, the IC50 with L1210 cells (read-out: ID-50 L1210, Table I, bioliquid assay, 48 hours) came out at 0.5 µg/mL (≈ 1.65 µM); with L1210 cells (setting [6]), 0.48 µg/mL (≈ 1.59 µM); in [3] (setting [8]) it was 7.6 µg/mL (≈ 25.1 µM). The “in vitro activity score, A 204” value in data set [1] (0.01 μg/ml), in data set [1] (0.1 μg/ml) and in data set [1] (1.0 μg/ml) was “-” each time. The “half-wave potential E1.2, wave I” value in data set [4] was -380 mV. For the same molecule, the “half-wave potential E1.2, wave II” value in [4] is reported as -780 mV. For the same molecule, the “in vitro activity score, T 24” value in data set [2] (0.01 μg/ml), in data set [2] (0.1 μg/ml) and in data set [2] (1.0 μg/ml) was “-” in each case. Moreover, the “in vitro activity score, WiDr” value in the data set on WiDr cells; colon tumour (0.01 μg/ml), in the data set on WiDr cells; colon tumour (0.1 μg/ml) and in the data set on WiDr cells; colon tumour (1.0 μg/ml) was “-” each time. In addition, the “in vitro activity score, IgR-37” value with IgR37 cells melanoma (0.01 μg/ml) is “-”; with IgR37 cells melanoma (0.1 μg/ml) it was “-”; in the data set with IgR37 cells melanoma (1.0 μg/ml) it was “-”; in the data set on IgR37 cells melanoma (10 μg/ml) it was “+”.
The T/C is the ratio of treated to control. As to `CC(=O)OC/C=C/c1c(COC(C)=O)c2c(n1C)C(=O)C(C)=C(N1CC1)C2=O` [E.O. 35, 3-Acetoxymethyl-5-aziridino-1,6-dimethyl-2-[1H-indole-4,7-dione]prop-β-en-αyl acetate], the “in vitro activity score, MCF-7” value with MCF7 breast cancer cells (0.01 μg/ml), with MCF7 breast cancer cells (0.1 μg/ml) and in the data set with MCF7 breast cancer cells (1.0 μg/ml) was “-” each time. The results for the IC50 (with L1210 cells (setting [6]); in [3] (setting [7]); in data set [3] (setting [8])) were 0.55 µg/mL, 0.3 µg/mL and 0.32 µg/mL, respectively. In addition, the “in vitro activity score, A 204” value in data set [1] (0.01 μg/ml), in data set [1] (0.1 μg/ml) and in [1] (1.0 μg/ml) was “-” each time. Besides, the “in vitro activity score, T 24” value in data set [2] (0.01 μg/ml), in data set [2] (0.1 μg/ml) and in [2] (1.0 μg/ml) was “-” in each case. In addition, the “MAX T/C” value in the data set on P 388 tumour cells (400 mg/kg) is 131%. Further, in the data set on P 388 tumour cells (optimal dose), the “T/C at the optimal dose” value is given as approximately 130%. The “in vitro activity score, WiDr” value in the data set with WiDr cells; colon tumour (0.01 μg/ml), with WiDr cells; colon tumour (0.1 μg/ml) and in the data set with WiDr cells; colon tumour (1.0 μg/ml) was “-” in each case. The “in vitro activity score, IgR-37” value with IgR37 cells melanoma (0.01 μg/ml) is “-”; in the data set with IgR37 cells melanoma (0.1 μg/ml) it was “-”; with IgR37 cells melanoma (10 μg/ml), “+”.
Take `CN(C)c1nc(N(C)C)nc(N(C)C)n1` [HMM]: in the data set with Ovarian (MRI-H-207) line (150 mg/kg, days of treatment 0,2,4,6), the toxic deaths is reported as 1/6.
With `CN(Cc1cnc2nc(N)nc(N)c2n1)c1ccc(C(=O)N[C@@H](CCC(=O)O)C(=O)O)cc1` [Methotrex., reference compound], the “in vitro activity score, MCF-7” value in the data set on MCF7 breast cancer cells (0.01 μg/ml), in the data set on MCF7 breast cancer cells (0.1 μg/ml), with MCF7 breast cancer cells (1.0 μg/ml) and in the data set on MCF7 breast cancer cells (10 μg/ml) was “-” throughout. Also, the “in vitro activity score, A 204” value in data set [1] (0.1 μg/ml), in data set [1] (1.0 μg/ml) and in data set [1] (10 μg/ml) was “+” each time. In the data set with Ovarian (MRI-H-207) line (setting [9]), the T/C % came to 47%. For the same molecule, the toxic deaths in the data set on Ovarian (MRI-H-207) line (setting [9]) is listed as 2/7. For the same molecule, the “in vitro activity score, WiDr” value with WiDr cells; colon tumour (0.01 μg/ml) was “-”. Also, the “in vitro activity score, IgR-37” value in the data set with IgR37 cells melanoma (0.01 μg/ml) is recorded as “-”.
